Experiments:
Experiment in all cases: relative viability (nuclei count vs DMSO), 5 days (fraction); higher = more cells survive
[1] = tested on: NCI-H1755
Procedure, shortened: (§1)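 Lung cancer cell lines in 1536-well plates were dosed by pin tool the day after seeding, either with one drug alone or with a fixed anchor-drug dose plus five library-drug doses (not always all listed) in √10 steps. After 5 days, cells were fixed and their nuclei stained in one step (final 0.05% Triton X-100, 1% formaldehyde, 1 ug/ml Hoechst), then counted on 4× images. Relative viability is the nuclei count in treated wells divided by that in vehicle wells. Values are medians of duplicate plates.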

[2] = tested on: LCLC-97TM1
Procedure, shortened: as §1

[3] = tested on: NCI-H2009
Procedure, shortened: as §1

[4] = tested on: NCI-H1975
Procedure, shortened: as §1

[5] = tested on: NCI-H460
Procedure, shortened: as §1

[6] = tested on: NCI-H1355
Procedure, shortened: as §1

[7] = tested on: NCI-H647
Procedure, shortened: as §1

[8] = tested on: SK-LU-1
Procedure, shortened: as §1

[9] = tested on: PC-3 [JPC-3]
Procedure, shortened: as §1

[10] = tested on: NCI-H1793
Procedure, shortened: as §1

[11] = tested on: NCI-H1993
Procedure, shortened: as §1

[12] = tested on: NCI-H520
Procedure, shortened: as §1

[13] = tested on: NCI-H1944
Procedure, shortened: as §1

[14] = tested on: NCI-H2347
Procedure, shortened: as §1

[15] = tested on: SW 1573
Procedure, shortened: as §1

[16] = tested on: NCI-H727
Procedure, shortened: as §1

[17] = tested on: NCI-H2170
Procedure, shortened: as §1

[18] = tested on: ABC-1
Procedure, shortened: as §1

[19] = tested on: EMC-BAC-2
Procedure, shortened: as §1

[20] = tested on: NCI-H2126
Procedure, shortened: as §1

[21] = tested on: PC-14
Procedure, shortened: as §1

[22] = tested on: NCI-H1563
Procedure, shortened: as §1

[23] = tested on: NCI-H1666
Procedure, shortened: as §1

CCCCCCCCCCCC1=C(O)C(=O)C=C(O)C1=O [Embelin] + CS(=O)(=O)CCNCc1ccc(-c2ccc3ncnc(Nc4ccc(OCc5cccc(F)c5)c(Cl)c4)c3c2)o1 [Lapatinib] (partner 2 µM)
relative viability ([1]; first compound 0.08 µM): 1.03 | relative viability ([1]; first compound 0.8 µM): 1.04 | relative viability ([1]; first compound 2.53 µM): 1.06 | relative viability ([1]; first compound 8 µM): 0.97 | relative viability ([2]; first compound 0.8 µM): 1.48 | relative viability ([2]; first compound 2.53 µM): 0.823 | relative viability ([2]; first compound 8 µM): 0.86 | relative viability ([3]; first compound 0.08 µM): 1.05 | relative viability ([3]; first compound 0.8 µM): 1.09 | relative viability ([3]; first compound 2.53 µM): 0.815 | relative viability ([3]; first compound 8 µM): 0.879 | relative viability ([4]; first compound 0.08 µM): 0.807 | relative viability ([4]; first compound 0.8 µM): 0.951 | relative viability ([4]; first compound 2.53 µM): 1.09 | relative viability ([4]; first compound 8 µM): 0.872 | relative viability ([5]; first compound 0.08 µM): 1.04 | relative viability ([5]; first compound 0.8 µM): 1.1 | relative viability ([5]; first compound 8 µM): 1.1 | relative viability ([6]; first compound 0.08 µM): 0.878 | relative viability ([6]; first compound 0.8 µM): 1.15 | relative viability ([6]; first compound 2.53 µM): 1.07 | relative viability ([6]; first compound 8 µM): 0.686 | relative viability ([7]; first compound 0.08 µM): 1.08 | relative viability ([7]; first compound 0.8 µM): 1.38 | relative viability ([7]; first compound 2.53 µM): 1.89 | relative viability ([7]; first compound 8 µM): 1.17 | relative viability ([8]; first compound 0.08 µM): 1 | relative viability ([8]; first compound 0.8 µM): 1.15 | relative viability ([8]; first compound 2.53 µM): 0.9 | relative viability ([8]; first compound 8 µM): 0.863 | relative viability ([9]; first compound 0.08 µM): 0.428 | relative viability ([9]; first compound 0.8 µM): 0.473 | relative viability ([9]; first compound 2.53 µM): 0.477 | relative viability ([9]; first compound 8 µM): 0.406 | relative viability ([10]; first compound 0.08 µM): 0.68 | relative viability ([10]; first compound 0.8 µM): 0.833 | relative viability ([10]; first compound 2.53 µM): 0.801 | relative viability ([10]; first compound 8 µM): 0.686 | relative viability ([11]; first compound 0.08 µM): 0.845 | relative viability ([11]; first compound 0.8 µM): 0.777 | relative viability ([11]; first compound 2.53 µM): 0.803 | relative viability ([11]; first compound 8 µM): 0.834 | relative viability ([12]; first compound 0.08 µM): 0.946 | relative viability ([12]; first compound 0.8 µM): 0.729 | relative viability ([12]; first compound 2.53 µM): 0.936 | relative viability ([12]; first compound 8 µM): 0.862 | relative viability ([13]; first compound 0.08 µM): 0.774 | relative viability ([13]; first compound 0.8 µM): 0.908 | relative viability ([13]; first compound 2.53 µM): 0.841 | relative viability ([13]; first compound 8 µM): 0.65 | relative viability ([14]; first compound 0.08 µM): 1.02 | relative viability ([14]; first compound 0.8 µM): 0.929 | relative viability ([14]; first compound 2.53 µM): 0.968 | relative viability ([14]; first compound 8 µM): 0.969 | relative viability ([15]; first compound 0.08 µM): 1.04 | relative viability ([15]; first compound 0.8 µM): 1.03 | relative viability ([15]; first compound 2.53 µM): 1.33 | relative viability ([15]; first compound 8 µM): 1.09 | relative viability ([16]; first compound 0.08 µM): 0.737 | relative viability ([16]; first compound 0.8 µM): 0.753 | relative viability ([16]; first compound 2.53 µM): 1.13 | relative viability ([16]; first compound 8 µM): 0.738 | relative viability ([17]; first compound 0.08 µM): 0.276 | relative viability ([17]; first compound 0.8 µM): 0.282 | relative viability ([17]; first compound 2.53 µM): 0.275 | relative viability ([17]; first compound 8 µM): 0.253 | relative viability ([18]; first compound 0.08 µM): 1.28 | relative viability ([18]; first compound 0.8 µM): 1.7 | relative viability ([18]; first compound 2.53 µM): 1.25 | relative viability ([18]; first compound 8 µM): 1.1 | relative viability ([19]; first compound 0.08 µM): 0.932 | relative viability ([19]; first compound 0.8 µM): 0.959 | relative viability ([19]; first compound 2.53 µM): 0.926 | relative viability ([19]; first compound 8 µM): 0.817 | relative viability ([20]; first compound 0.08 µM): 0.742 | relative viability ([20]; first compound 0.8 µM): 0.791 | relative viability ([20]; first compound 2.53 µM): 0.83 | relative viability ([20]; first compound 8 µM): 0.643 | relative viability ([21]; first compound 0.08 µM): 0.391 | relative viability ([21]; first compound 0.8 µM): 0.355 | relative viability ([21]; first compound 2.53 µM): 0.347 | relative viability ([21]; first compound 8 µM): 0.353 | relative viability ([22]; first compound 0.08 µM): 0.869 | relative viability ([22]; first compound 0.8 µM): 1.11 | relative viability ([22]; first compound 2.53 µM): 0.838 | relative viability ([22]; first compound 8 µM): 0.839 | relative viability ([23]; first compound 0.08 µM): 0.603 | relative viability ([23]; first compound 0.8 µM): 0.795 | relative viability ([23]; first compound 2.53 µM): 0.761 | relative viability ([23]; first compound 8 µM): 0.616

From the supplement of paper PMC10307832
